Results on two compounds are retold here after patent publication US7671091B2, “Penis enlargement” (priority 2004, dated 2010).

Series [1] concerns human penis. The series is described as follows: Permanent increase in erect penis length and girth after repeated intracavernosal vasodilator treatment of male patients. The series is classed as in vivo. An excerpt: The term “penis length” refers to the maximum length of the penis, as measured along the dorsal surface of the penis from the symphysis pubis to the tip or end of the glans penis when the glans penis is pulled manually and put under tension. Preferably, the measurement is taken when the penis is fully erect.
The term “penis girth” refers to the largest measured value obtained for circumference of the erect penis, as measured in the midshaft region (middle third). Preferably, the measurement is taken when the penis is fully erect.
An engorgement is deemed “cumulative prolonged” when an erectile response lasts for at least 3 hours over a 24 hours period.
(§1) Therefore, a “cumulative prolonged engorgement” would be an erectile response that is over 40% for a period of at least 3 hours in a 24 hours period.
A patient was treated with intracavernosal injections of a vasodilator, prostaglandin E1, on a regular basis (approximately four to five times per week) over an 18 month treatment period. […] The quantity of medication was adjusted from time to time in accordance with the patient's response, which was monitored at least weekly. […]
A patient was treated with intracavernosal injections of a quadruple mix of the vasodilators prostaglandin E1, Atropine, Chlorpromazine and Papavarine on a regular basis (approximately two to four times per week) over a 4-month treatment period. […] The quantity of medication was adjusted in accordance with the patient's response. The potentiator dihydrotestosterone 5% ointment was administered […] starting two weeks before starting the IC injections of the vasodilators Atropine, Chlorpromazine and Papavarine and prostaglandin.

Series [2] relates to human penis. As to conditions: in vivo. The method, then:
as §1
(§2) The quantity of medication was adjusted in accordance with the patient's response.
as §2

Setting [3] is: Example 1: patient, 18-month treatment.

As to `Cc1ccc(N(CC2=NCCN2)c2cccc(O)c2)cc1` [phentolamine], in series [1] (Example 6: patient, 4 months, frequently with oral Viagra, dihydrotestosterone gel), the “increase in erect penis length” value is reported as roughly 25%. In addition, the “erect penis length after treatment” value in series [1] (Example 6: patient, intracavernosal 2-4 times per week, 4 months, frequently combined with oral Viagra, potentiator dihydrotestosterone gel, from 5.2 inches) amounted to 6.5 inches.

Turning to `CCCCC[C@H](O)/C=C/[C@H]1[C@H](O)CC(=O)[C@@H]1CCCCCCC(=O)O` [prostaglandin E1], in series [1] (setting [3]), the “increase in erect penis girth” value was roughly 56%. The “increase in erect penis length” value in series [1] (setting [3]) was roughly 48%; in series [1] (Example 10: patient, 3 months, with daily subcutaneous dihydrotestosterone) it was roughly 13%. For the same compound, the “fully erect penis girth after treatment” value in series [1] (Example 1: patient, 18-month treatment, from 3.7 inches) stood at 5.8 inches. Besides, the “fully erect penis length after treatment” value in series [1] (Example 1: patient, intracavernosal, approx. 4-5 times per week, 18-month treatment, from 5.8 inches) worked out at 8.6 inches. In addition, the “erect penis length after treatment” value in series [1] (Example 10: patient, two separate IC injections per treatment day, 2-5 times per week, 3 months, dihydrotestosterone 15 mg subcutaneously into the penis daily, from 6.3 inches) was found to be 7.1 inches. Also, the “tolerability (sensitivity)” value in series [2] is “aching and pain at higher doses”.
